Patent US20220152019A1, “COMPOUNDS, COMPOSITIONS, AND METHODS FOR TREATING INFLAMMATORY OR IMMUNE-MEDIATED CONDITIONS OF SURFACE TISSUES” (Landos Biopharma, Inc., priority 2020, published 2022)

Legend:
[1] = tested on: Imiquimod (IMQ)-induced psoriasis in C57BL/6 mice; test: Imiquimod (IMQ)-induced model of psoriasis, topical treatment, PASI scoring; assay type: in vivo; details: BT-11 dihydrochloride salt 200 μg in DMSO, vs DMSO control, day 7
Description: (§1) Imiquimod (IMQ)-induced model. C57BL/6 mice were anesthetized, shaved, and briefly exposed to depilatory cream on the surface of the back. Mice were given three days to recover from the procedure prior to entry to the study. After 3 days, mice were challenged with approximately 60 mg of […] imiquimod cream daily by spreading cream over the shaved area. Treatment with BT-11 dihydrochloride salt (200 μg) in dimethyl sulfoxide (DMSO) or a DMSO control lacking BT-11 occurred by topical application to the shaved area. Mice were scored for erythema, scaling and skin thickness, summarized into a composite psoriasis area and severity index (PASI) score on a scale from 0 to 12, on day 7.

[2] = tested on: cervical lymph node CD3+CD4+ T cells; test: Flow cytometry of cervical lymph node cells from the MC903-induced atopic dermatitis model; assay type: in vivo, mice; details: cervical lymph nodes, BT-11 cream 2% vs placebo cream
Description: MC903-induced model. MC903 (2 nM in 20 uL ethanol) was applied to the dorsal ear skin three times per week for nine applications. BT-11 topical cream (2%) (Formula F3 is Table 2) was applied to the ear daily. Mice were scored for erythema, scaling and skin thickness, summarized into a composite disease activity index score through day 19. Analysis. Cervical lymph nodes were excised and crushed by microscope slides. Red blood cells were hypotonically lysed from the resultant suspension. Samples were filtered, washed and centrifuged prior to staining. Production of IFNγ, IL-5, and IL-4 were quantified from CD3+CD4+ T cells by flow cytometry.

[3] = tested on: MC903-induced atopic dermatitis in mice; test: MC903-induced model of atopic dermatitis, topical cream, disease activity index scoring; assay type: in vivo; details: BT-11 topical cream 2% (Formula F3) daily to the ear, vs placebo cream
Description: MC903-induced model. MC903 (2 nM in 20 uL ethanol) was applied to the dorsal ear skin three times per week for nine applications. BT-11 topical cream (2%) (Formula F3 is Table 2) was applied to the ear daily. Mice were scored for erythema, scaling and skin thickness, summarized into a composite disease activity index score through day 19.

[4] = tested on: splenic CD3+CD4+ T cells and CD45+ cells; test: Flow cytometry of spleen cells from the IMQ-induced psoriasis model; assay type: in vivo, mice; details: topical BT-11 vs DMSO control
Description: as §1
Analysis. Spleens were excised and crushed by microscope slides. Red blood cells were hypotonically lysed from the resultant suspension. Samples were filtered, washed and centrifuged prior to staining. Production of TNF, IL-17, and IL-21 were quantified from CD3+CD4+ T cells and IL6 from CD45+ by flow cytometry.

With `O=C(c1cccc(-c2nc3ccccc3[nH]2)n1)N1CCN(C(=O)c2cccc(-c3nc4ccccc4[nH]3)n2)CC1` [BT-11, piperazine-1,4-diylbis((6-(1H-benzo[d]imidazo-2-yl)pyridine-2-yl)methanone)] the “PASI subscores (erythema, scaling, skin thickness)” value [1] was “reductions in each subscore”, the “cervical lymph node proportion of IFNγ-positive CD4+ T cells” value ([2]; FIG. 2B) was “reduced” and the “cervical lymph node proportion of IL-4-positive CD4+ T cells” value ([2]; FIG. 2C) was “reduced”. For the same molecule, the “cervical lymph node proportion of IL-5-positive CD4+ T cells” value ([2]; FIG. 2D) was “reduced”, the “disease activity subscores (erythema, scaling, skin thickness)” value [3] was “reductions in each subscore” and the “reduction of severity of disease (composite disease activity index score)” value ([3]; through day 19, FIG. 2A) was “approximately 70%”. The “splenic proportion of TNF-positive CD4+ T cells” value ([4]; FIG. 1B) was “reduced”, the “splenic proportion of IL-17-positive CD4+ T cells” value ([4]; FIG. 1C) was “reduced” and the “splenic proportion of IL-21-positive CD4+ T cells” value ([4]; FIG. 1D) was “reduced”. The “splenic proportion of IL-6+ cells within all CD45+ immune cells” value ([4]; FIG. 1E) was “reduction”.
